Results: the Kinase Knowledgebase extract (Sharma et al. 2016)

target: MAPK14 (human) (UniProt Q16539); assay: Inhibition of LPS Stimulated TNF-alpha Production in THP-1 Cells; conditions: thp1
Sequence (Q16539 whole entry, looked up): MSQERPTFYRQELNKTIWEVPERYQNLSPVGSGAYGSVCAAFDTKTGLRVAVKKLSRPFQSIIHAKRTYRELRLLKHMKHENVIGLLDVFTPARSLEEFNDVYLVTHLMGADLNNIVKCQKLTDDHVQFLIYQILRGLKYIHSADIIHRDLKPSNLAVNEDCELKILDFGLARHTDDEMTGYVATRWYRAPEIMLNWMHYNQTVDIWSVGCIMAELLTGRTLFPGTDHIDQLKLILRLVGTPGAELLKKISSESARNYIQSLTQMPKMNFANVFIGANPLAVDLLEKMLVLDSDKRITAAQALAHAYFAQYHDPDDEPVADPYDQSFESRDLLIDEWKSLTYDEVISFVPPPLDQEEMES

Structure (SMILES)	IC50
CCc1nc(-c2cccc(Cl)c2)c(-c2ccnc(NC3CCCCC3)c2)s1	55 nM
CNc1nc(-c2ccc(OC)cc2)c(-c2ccncc2)s1	140 nM
CNc1nc(-c2ccc(Cl)cc2)c(-c2ccncc2)s1	180 nM
Cc1cc(C)cc(-c2nc(N)sc2-c2ccnc(NCc3ccccc3)c2)c1	140 nM
CCc1nc(-c2cccc(Cl)c2)c(-c2ccnc(N[C@@H](C)c3ccccc3)c2)s1	57 nM
CCc1nc(-c2cccc(Cl)c2)c(-c2ccnc(NC(C)=O)c2)s1	120 nM
Cc1cccc(-c2nc(N)sc2-c2ccncc2)c1	46 nM
Cc1cccc(-c2nc(N(C)C(=O)c3ccc(C)nc3)sc2-c2ccnc(NC3CCCC3)c2)c1	82 nM

The next compounds have a lower IC50 than those just listed; values first:

IC50	Structure (SMILES)
26 nM	COc1ccc(-c2nc(NC(=O)c3cccnc3)sc2-c2ccnc(NC(=O)c3cccnc3)c2)cc1
21 nM	CCC(=O)Nc1cc(-c2sc(-c3ccc(S(C)(=O)=O)cc3)nc2-c2cccc(Cl)c2)ccn1
20 nM	Cc1cc(C)cc(-c2nc(N)sc2-c2ccnc(NC(=O)c3ccccc3)c2)c1
15 nM	CCc1nc(-c2ccc(Cl)cc2)c(-c2ccnc(NC(=O)c3ccccc3)c2)s1
14 nM	COc1ccc(-c2nc(N)sc2-c2ccnc(NC(=O)c3ccccc3)c2)cc1
5.9 nM	CCc1nc(-c2cccc(C)c2)c(-c2ccnc(NC(=O)c3ccsc3)c2)s1
2 nM	CCCc1nc(-c2cccc(C)c2)c(-c2ccnc(N)c2)s1
